The numbers were not newly measured in patent US8399704B2, “Methods for salt production” (Colgate-Palmolive Company, priority 2008, dated 2013), which cites them from elsewhere.

Each structure is given as a SMILES string.

For this series the following is noted: room temperature, natural partial pressure (3.5×10^−4 atmosphere).

Turning to `O=C=O` [Carbon dioxide], the “maximum concentration of carbon dioxide in water” value is “about 1.2×10^−5 M”.
